Source: ChEMBL document CHEMBL1201862, “PubChem BioAssay data set” (2004)
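Briefly, cells in 96-well plates were exposed to five compound concentrations for 48 h, and endpoints were estimated by linear interpolation. Abbreviation: GI50, concentration required for 50% inhibition of growth.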 Active and inactive are the calls of the source. Cut-off read from the data, not from the text of the source: active = GI50 up to about 1.1 µM and inactive = higher.

Experiments:
Test in all cases: NCI anticancer screen, dose series, 48 h
[1] = test system: UACC-257
[2] = test system: HCT-15
[3] = test system: MDA-MB-435
[4] = test system: KM12
[5] = test system: SK-MEL-2
[6] = test system: SNB-75
[7] = test system: UO-31
[8] = test system: SF-539
[9] = test system: HCT-116
[10] = test system: A549
[11] = test system: LOX IMVI
[12] = test system: MOLT-4
[13] = test system: U-251
[14] = test system: OVCAR-4
[15] = test system: BT-549
[16] = test system: SK-MEL-28
[17] = test system: NCI-H522
[18] = test system: HL-60
[19] = test system: SNB-19

Compound | GI50 [1] | GI50 [2] | GI50 [3] | GI50 [4] | GI50 [5] | GI50 [6] | GI50 [7] | GI50 [8] | GI50 [9] | GI50 [10] | GI50 [11] | GI50 [12] | GI50 [13] | GI50 [14] | GI50 [15] | GI50 [16] | GI50 [17] | GI50 [18] | GI50 [19]
CCOC(=O)c1[nH]cc(C)c1-c1ccc2c(-c3ccccc3)nc3ccccc3n12 | 5.3 µM (inactive) | 3.55 µM | 2.23 µM (inactive) | 3.45 µM (inactive) | 4.29 µM (inactive) | 1.85 µM (inactive) | 3.86 µM (inactive) | 3.12 µM (inactive) | 3.19 µM (inactive) | 3.77 µM (inactive) | 3.44 µM (inactive) | 2.31 µM (inactive) | 3.01 µM (inactive) | 3.85 µM (inactive) | 5.13 µM (inactive) | 3.89 µM (inactive) | 1.53 µM (inactive) | – | –
CCOC(=O)c1ccc(C(=O)/C(C#N)=C2\CCCN2)n1C | – | 76.4 µM | 31.2 µM (inactive) | > 100 µM (inactive) | > 100 µM (inactive) | 24.7 µM (inactive) | > 100 µM (inactive) | – | > 100 µM (inactive) | > 100 µM (inactive) | 86.5 µM (inactive) | 13.6 µM (inactive) | > 100 µM (inactive) | > 100 µM (inactive) | 78.9 µM (inactive) | > 100 µM (inactive) | 95.7 µM (inactive) | 34.2 µM (inactive) | > 100 µM (inactive)
O=C(CCc1cc(O)cc(O)c1)NCCc1cc(O)cc(OCc2ccccc2)c1 | 82.4 µM (inactive) | 68.9 µM | 36.2 µM (inactive) | 34 µM (inactive) | 44.8 µM (inactive) | 27.2 µM (inactive) | 22.2 µM (inactive) | 36.7 µM (inactive) | 35.7 µM (inactive) | 42.3 µM (inactive) | 33.7 µM (inactive) | 28.9 µM (inactive) | 41.8 µM (inactive) | – | 29.6 µM (inactive) | 54.8 µM (inactive) | 36.5 µM (inactive) | – | 26.4 µM (inactive)
Clc1sc(Cl)c2c1[C@@H](Cl)C[C@@H]2Cl | > 100 µM (inactive) | > 100 µM | 92 µM (inactive) | > 100 µM (inactive) | > 100 µM (inactive) | 33.3 µM (inactive) | 76 µM (inactive) | > 100 µM (inactive) | 53.5 µM (inactive) | 61.9 µM (inactive) | 49.4 µM (inactive) | 46.6 µM (inactive) | > 100 µM (inactive) | 74.3 µM (inactive) | > 100 µM (inactive) | 84.9 µM (inactive) | 18.9 µM (inactive) | – | –
C/C(=N\NC(=O)/C(C#N)=C\c1ccc(N(CCC#N)CCC#N)cc1)c1ccccc1 | > 10 µM (inactive) | > 10 µM | > 10 µM (inactive) | > 10 µM (inactive) | – | > 10 µM (inactive) | > 10 µM (inactive) | > 10 µM (inactive) | > 10 µM (inactive) | > 10 µM (inactive) | > 10 µM (inactive) | > 10 µM (inactive) | – | > 10 µM (inactive) | > 10 µM (inactive) | > 10 µM (inactive) | > 10 µM (inactive) | > 10 µM (inactive) | 4.1 µM (inactive)
C=CC1CCC[N+]1(CC(=O)OCC)Cc1ccccc1 (centres undefined) | > 100 µM (inactive) | > 100 µM | > 100 µM (inactive) | – | – | > 100 µM (inactive) | > 100 µM (inactive) | – | > 100 µM (inactive) | > 100 µM (inactive) | – | > 100 µM (inactive) | > 100 µM (inactive) | > 100 µM (inactive) | > 100 µM (inactive) | > 100 µM (inactive) | – | > 100 µM (inactive) | > 100 µM (inactive)
C=CCON(C(=O)OC(C)(C)C)C(C)(C)C | > 100 µM (inactive) | > 100 µM | > 100 µM (inactive) | > 100 µM (inactive) | > 100 µM (inactive) | > 100 µM (inactive) | > 100 µM (inactive) | – | > 100 µM (inactive) | > 100 µM (inactive) | > 100 µM (inactive) | > 100 µM (inactive) | > 100 µM (inactive) | 1.55 µM (inactive) | > 100 µM (inactive) | > 100 µM (inactive) | > 100 µM (inactive) | > 100 µM (inactive) | > 100 µM (inactive)
CCCOC(=O)c1cc(C(=CCC[C@H]2CC[C@@]3(C)[C@@H](CC[C@@H]4[C@@H]3CC[C@]3(C)[C@@H](C(C)CCCC(C)C)CC[C@@H]43)C2)c2cc(Cl)c(O)c(C(=O)OCCC)c2)cc(Cl)c1O (some centres undefined) | – | > 50 µM | > 50 µM (inactive) | > 50 µM (inactive) | > 50 µM (inactive) | > 50 µM (inactive) | – | – | > 50 µM (inactive) | – | > 50 µM (inactive) | > 50 µM (inactive) | > 50 µM (inactive) | > 50 µM (inactive) | > 50 µM (inactive) | – | – | > 50 µM (inactive) | > 50 µM (inactive)
Cc1ccc(O)c(C2=CC3=NNC(=O)C3C(c3cccc(Br)c3)C2)c1 (centres undefined) | 45.2 µM (inactive) | 20.9 µM | 23.9 µM (inactive) | 14.9 µM (inactive) | 27.4 µM (inactive) | 22.6 µM (inactive) | 57.3 µM (inactive) | 29.4 µM (inactive) | 21 µM (inactive) | 23 µM (inactive) | 14 µM (inactive) | 30.9 µM (inactive) | 21.7 µM (inactive) | 8.04 µM (inactive) | 23.1 µM (inactive) | 20.6 µM (inactive) | – | 25.4 µM (inactive) | 34.2 µM (inactive)
O=C(/C=C/c1ccc(O)c(O)c1)OCCCOC(=O)/C=C/c1ccc(O)c(O)c1 | 26.4 µM (inactive) | 14 µM | 30.2 µM (inactive) | 33.3 µM (inactive) | 41.8 µM (inactive) | 47.2 µM (inactive) | 7.13 µM (inactive) | 41.9 µM (inactive) | 18.2 µM (inactive) | 31.3 µM (inactive) | 12.4 µM (inactive) | 10.9 µM (inactive) | 23.5 µM (inactive) | 23.2 µM (inactive) | 25.3 µM (inactive) | 36.6 µM (inactive) | 11.6 µM (inactive) | – | 31.4 µM (inactive)
COc1ccc(-c2nc3ncccn3c2-c2ccc(S(C)(=O)=O)cc2)cc1 | > 100 µM (inactive) | > 100 µM | 38 µM (inactive) | > 100 µM (inactive) | > 100 µM (inactive) | > 100 µM (inactive) | > 100 µM (inactive) | > 100 µM (inactive) | > 100 µM (inactive) | > 100 µM (inactive) | > 100 µM (inactive) | > 100 µM (inactive) | > 100 µM (inactive) | > 100 µM (inactive) | > 100 µM (inactive) | > 100 µM (inactive) | – | > 100 µM (inactive) | > 100 µM (inactive)
CCOC(=O)c1ccc2nc3n(c2c1)C(c1c(F)cccc1F)SC3 (centres undefined) | > 100 µM (inactive) | > 100 µM | > 100 µM (inactive) | 81.8 µM (inactive) | > 100 µM (inactive) | > 100 µM (inactive) | > 100 µM (inactive) | > 100 µM (inactive) | 50.4 µM (inactive) | 79.1 µM (inactive) | > 100 µM (inactive) | > 100 µM (inactive) | > 100 µM (inactive) | > 100 µM (inactive) | > 100 µM (inactive) | > 100 µM (inactive) | – | > 100 µM (inactive) | 95.3 µM (inactive)
CC(=O)OCC1OC(OCCCOP(=S)(OCCC#N)OCC2OC(n3ccc(N)nc3=O)C(OC(=O)c3ccccc3)C2OC(=O)c2ccccc2)C(OC(C)=O)C(OC(C)=O)C1OC(C)=O (centres undefined) | > 100 µM (inactive) | > 100 µM | > 100 µM (inactive) | > 100 µM (inactive) | > 100 µM (inactive) | 75.5 µM (inactive) | > 100 µM (inactive) | > 100 µM (inactive) | > 100 µM (inactive) | > 100 µM (inactive) | > 100 µM (inactive) | > 100 µM (inactive) | > 100 µM (inactive) | > 100 µM (inactive) | > 100 µM (inactive) | > 100 µM (inactive) | > 100 µM (inactive) | – | > 100 µM (inactive)
COC1(C)/C=N/CC(C)(C)NC(=O)C(C)(OC)/C=N/CC(C)(C)NC1=O (centres undefined) | > 10 µM (inactive) | > 10 µM | > 10 µM (inactive) | > 10 µM (inactive) | – | > 10 µM (inactive) | – | > 10 µM (inactive) | > 10 µM (inactive) | > 10 µM (inactive) | – | > 10 µM (inactive) | > 10 µM (inactive) | > 10 µM (inactive) | > 10 µM (inactive) | > 10 µM (inactive) | 3.53 µM (inactive) | > 10 µM (inactive) | > 10 µM (inactive)
CO/[N+]([O-])=C\C(=O)N/C=C/C(=O)O | > 100 µM (inactive) | > 100 µM | > 100 µM (inactive) | > 100 µM (inactive) | – | > 100 µM (inactive) | > 100 µM (inactive) | > 100 µM (inactive) | > 100 µM (inactive) | – | > 100 µM (inactive) | > 100 µM (inactive) | > 100 µM (inactive) | > 100 µM (inactive) | > 100 µM (inactive) | > 100 µM (inactive) | > 100 µM (inactive) | > 100 µM (inactive) | > 100 µM (inactive)
Cc1ccc(C2SCC(=O)N2c2ccc(-c3ccc(-n4c(-c5ccccc5)nc5ccccc5c4=O)cc3)cc2)cc1 (centres undefined) | > 100 µM (inactive) | 62.5 µM | 88.3 µM (inactive) | 55.8 µM (inactive) | > 100 µM (inactive) | – | 18.6 µM (inactive) | – | – | > 100 µM (inactive) | 54.1 µM (inactive) | 34.5 µM (inactive) | 73.3 µM (inactive) | 51.3 µM (inactive) | 60.7 µM (inactive) | > 100 µM (inactive) | 37.2 µM (inactive) | 31 µM (inactive) | > 100 µM (inactive)
